The record followed here is US9708314B2, “Heterocyclic amide compound” (NISSAN CHEMICAL INDUSTRIES, LTD., priority 2013, dated 2017).

The melting point is the temperature of the solid-liquid transition.

One series relates to Triticum aestivum. Description: Test Example 4: effect on crop by application to foliage (diluvial soil, plastic box). The format is in vivo. An outline of the steps:
(§1)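 Read-out is a 0–5 visual grade of herbicidal ratio (5: ≥90%, almost withered; 0: ≤5%) taken three weeks after treatment. Compound was applied as a diluted emulsion to stem and leaf parts of 14-day greenhouse-grown plants (25° C. to 30° C.) at rates expressed as g/ha.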

In another series the test system is Glycine max. Described as above. The format is in vivo. An outline of the steps:
as §1

Series [1] has as its system Beta vulgaris ssp. vulgaris. The description is as above. The class given is in vivo. An outline of the steps: as §1
The test system of another series is Zea mays. The series is described as above. The format is in vivo. An outline of the steps:
as §1

The subject of the next series is Brassica campestris L. The series is described as above. The format is in vivo. An outline of the steps:
as §1

The test system of series [2] is directly sowed Oryza sativa. The description is as above. The class given is in vivo. An outline of the steps:
as §1

The next series has as its system Veronica persica. Description: Test Example 4: herbicidal effect by application to foliage (diluvial soil, plastic box). The class given is in vivo. An outline of the steps:
as §1

The test system of a further series is Alopecurus myosuroides. Described as above. The format is in vivo. An outline of the steps: as §1
The subject of a further series is Lolium multiflorum Lam. Described as above. The class given is in vivo. An outline of the steps:
as §1

For the next series, the system named is Apera spica-venti. The description is as above. The format is in vivo. An outline of the steps:
as §1

The test system of another series is Amaranthus retroflexus. Described as above. The class given is in vivo. An outline of the steps:
as §1

In another series the test system is Avena fatua. Described as above. The format is in vivo. An outline of the steps:
as §1

In a further series the test system is Galium spurium. The description is as above. The format is in vivo. An outline of the steps: as §1
The subject of the next series is Stellaria media. The description is as above. The format is in vivo. An outline of the steps: as §1
Another series deals with Setaria viridis. The description is as above. The class given is in vivo. An outline of the steps: as §1
In a further series the test system is Chenopodium album. Described as above. The format is in vivo. An outline of the steps:
as §1

A further series concerns Abutilon theophrasti. Described as above. The format is in vivo. An outline of the steps:
as §1

The next series concerns Digitaria ciliaris. Described as above. The format is in vivo. An outline of the steps: as §1
In series [3] the test system is Echinochloa crus-galli var. crus-galli. Described as above. The class given is in vivo. An outline of the steps:
as §1

The subject of series [4] is Echinochloa oryzacola Vasing. The series can be described thus: Test Example 1: herbicidal activity, application before weed generation in submerged conditions. The settings on record: Application herbicide amount 320 g/ha; Seventeenth Table. The class given is in vivo. An outline of the steps: (§2)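 Submerged pot test: alluvial soil, 4 cm water, seeds sown mixed, 2.5-leaf rice transplanted; emulsion in water applied to surface day of sowing, dose g/ha; greenhouse 25–30° C.; 3 wk; 0–5 rating.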

For another series, the system named is Monochoria vaginalis. The series is described as above. The format is in vivo. The settings on record: Application herbicide amount 320 g/ha; Seventeenth Table. An outline of the steps: as §2
In another series the test system is Scirpus juncoides. Described as above. The class given is in vivo. The settings on record: Application herbicide amount 320 g/ha; Seventeenth Table. An outline of the steps: as §2
Where [5] appears, read: application to foliage, application herbicide amount 320 g/ha.

`CC(C)c1nnc2c(C(=S)Nc3nnnn3C)ccc(C(F)(F)F)n12` [2-039, 3-Isopropyl-N-(1-methyl-1H-tetrazol-5-yl)-5-(trifluoromethyl)-[1,2,4]triazolo[4,3-a]pyridine-8-carbothioamide] displayed a melting point of 198 to 200 °C. For the same compound, the “e (Triticum aestivum) effect on crop grade” value with Triticum aestivum (foliage application, 320 g/ha) is 3 (Herbicidal ratio of 40% or more and less than 70%). Besides, in the series with Glycine max (foliage application, 320 g/ha), the “c (Glycine max) effect on crop grade” value was 3 (Herbicidal ratio of 40% or more and less than 70%). The “f (Beta vulgaris ssp. vulgaris) effect on crop grade” value in series [1] (foliage application, 320 g/ha) is on record as 5 (Herbicidal ratio of 90% or more (almost completely withered)). For the same compound, the “b (Zea mays) effect on crop grade” value in the series on Zea mays (foliage application, 320 g/ha) was 4 (Herbicidal ratio of 70% or more and less than 90%). The “g (Brassica campestris L.) effect on crop grade” value in the series with Brassica campestris L. (foliage application, 320 g/ha) is 5 (Herbicidal ratio of 90% or more (almost completely withered)). In addition, in series [2] (foliage application, 320 g/ha), the “d (directly sowed Oryza sativa) effect on crop grade” value was 4 (Herbicidal ratio of 70% or more and less than 90%). The “R (Veronica persica) herbicidal effect grade” value with Veronica persica (foliage application, 320 g/ha) was 5 (Herbicidal ratio of 90% or more (almost completely withered)). In addition, the “J (Alopecurus myosuroides) herbicidal effect grade” value in the series with Alopecurus myosuroides (foliage application, 320 g/ha) was 3 (Herbicidal ratio of 40% or more and less than 70%). Moreover, the “K (Lolium multiflorum Lam.) herbicidal effect grade” value in the series on Lolium multiflorum Lam. (foliage application, 320 g/ha) is 3 (Herbicidal ratio of 40% or more and less than 70%). Further, in the series on Apera spica-venti. (foliage application, 320 g/ha), the “L (Apera spica-venti.) herbicidal effect grade” value is 4 (Herbicidal ratio of 70% or more and less than 90%). Also, in the series with Amaranthus retroflexus (foliage application, 320 g/ha), the “N (Amaranthus retroflexus) herbicidal effect grade” value is listed as 5 (Herbicidal ratio of 90% or more (almost completely withered)). Further, in the series on Avena fatua (foliage application, 320 g/ha), the “I (Avena fatua) herbicidal effect grade” value is 4 (Herbicidal ratio of 70% or more and less than 90%). Besides, in the series with Galium spurium (foliage application, 320 g/ha), the “Q (Galium spurium) herbicidal effect grade” value was 4 (Herbicidal ratio of 70% or more and less than 90%). The “P (Stellaria media) herbicidal effect grade” value in the series with Stellaria media (foliage application, 320 g/ha) is listed as 5 (Herbicidal ratio of 90% or more (almost completely withered)). In addition, the “G (Setaria viridis) herbicidal effect grade” value in the series with Setaria viridis (foliage application, 320 g/ha) was 5 (Herbicidal ratio of 90% or more (almost completely withered)). Also, the “O (Chenopodium album) herbicidal effect grade” value with Chenopodium album (foliage application, 320 g/ha) is 5 (Herbicidal ratio of 90% or more (almost completely withered)). For the same compound, the “M (Abutilon theophrasti) herbicidal effect grade” value with Abutilon theophrasti (foliage application, 320 g/ha) was 5 (Herbicidal ratio of 90% or more (almost completely withered)). The “F (Digitaria ciliaris) herbicidal effect grade” value in the series with Digitaria ciliaris (foliage application, 320 g/ha) is on record as 5 (Herbicidal ratio of 90% or more (almost completely withered)). The “H (Echinochloa crus-galli var. crus-galli) herbicidal effect grade” value in series [3] (foliage application, 320 g/ha) is on record as 5 (Herbicidal ratio of 90% or more (almost completely withered)). Moreover, the “A: Echinochloa oryzicola Vasing. (herbicidal effect grade)” value in [4] is reported as 5 (Herbicidal ratio of 90% or more (almost completely withered)). The “C: Monochoria vaginalis (herbicidal effect grade)” value with Monochoria vaginalis is listed as 5 (Herbicidal ratio of 90% or more (almost completely withered)). In addition, in the series with Scirpus juncoides, the “B: Scirpus juncoides (herbicidal effect grade)” value is reported as 5 (Herbicidal ratio of 90% or more (almost completely withered)).

Consider `C=CCN(C)c1nnc2c(C(=O)Nc3nnco3)ccc(C(F)(F)F)n12` [1-172], for which the “e: effect on crop, Triticum aestivum” value with Triticum aestivum (setting [5]) is 1 (Herbicidal ratio of 5% or more and less than 20%). Also, the “d: effect on crop, Glycine max” value with Glycine max (setting [5]) was 4 (Herbicidal ratio of 70% or more and less than 90%). For the same compound, the “f: effect on crop, Beta vulgaris ssp. vulgaris” value in [1] (setting [5]) was 5 (Herbicidal ratio of 90% or more (almost completely withered)). Moreover, the “c: effect on crop, Zea mays” value with Zea mays (setting [5]) is 0 (Herbicidal ratio of 5% or less (almost no effect)). Further, the “g: effect on crop, Brassica campestris L.” value in the series with Brassica campestris L. (setting [5]) was 4 (Herbicidal ratio of 70% or more and less than 90%). The “b: effect on crop, directly sowed Oryza sativa” value in [2] (setting [5]) is 3 (Herbicidal ratio of 40% or more and less than 70%). Moreover, in the series on Veronica persica (setting [5]), the “R: herbicidal effect on Veronica persica” value was 4 (Herbicidal ratio of 70% or more and less than 90%). Moreover, the “J: herbicidal effect on Alopecurus myosuroides” value with Alopecurus myosuroides (setting [5]) was 1 (Herbicidal ratio of 5% or more and less than 20%). In the series on Lolium multiflorum Lam. (setting [5]), the “K: herbicidal effect on Lolium multiflorum Lam.” value is 1 (Herbicidal ratio of 5% or more and less than 20%). For the same compound, the “L: herbicidal effect on Apera spica-venti.” value in the series on Apera spica-venti. (setting [5]) was 1 (Herbicidal ratio of 5% or more and less than 20%). Also, the “N: herbicidal effect on Amaranthus retroflexus” value with Amaranthus retroflexus (setting [5]) is recorded as 5 (Herbicidal ratio of 90% or more (almost completely withered)). In the series with Avena fatua (setting [5]), the “I: herbicidal effect on Avena fatua” value was 2 (Herbicidal ratio of 20% or more and less than 40%). In the series with Galium spurium (setting [5]), the “Q: herbicidal effect on Galium spurium” value was 4 (Herbicidal ratio of 70% or more and less than 90%). In the series with Stellaria media (setting [5]), the “P: herbicidal effect on Stellaria media” value was 5 (Herbicidal ratio of 90% or more (almost completely withered)). Besides, the “G: herbicidal effect on Setaria viridis” value in the series with Setaria viridis (setting [5]) is 4 (Herbicidal ratio of 70% or more and less than 90%). Also, the “O: herbicidal effect on Chenopodium album” value with Chenopodium album (setting [5]) is 5 (Herbicidal ratio of 90% or more (almost completely withered)). Besides, the “M: herbicidal effect on Abutilon theophrasti” value in the series on Abutilon theophrasti (setting [5]) is listed as 5 (Herbicidal ratio of 90% or more (almost completely withered)). The “F: herbicidal effect on Digitaria ciliaris” value in the series on Digitaria ciliaris (setting [5]) is given as 5 (Herbicidal ratio of 90% or more (almost completely withered)). The “H: herbicidal effect on Echinochloa crus-galli var. crus-galli” value in [3] (setting [5]) is 5 (Herbicidal ratio of 90% or more (almost completely withered)). Further, the “A: Echinochloa oryzicola Vasing. (herbicidal effect grade)” value in series [4] is 5 (Herbicidal ratio of 90% or more (almost completely withered)). In the series with Monochoria vaginalis, the “C: Monochoria vaginalis (herbicidal effect grade)” value is 3 (Herbicidal ratio of 40% or more and less than 70%). The “B: Scirpus juncoides (herbicidal effect grade)” value in the series with Scirpus juncoides was 4 (Herbicidal ratio of 70% or more and less than 90%).
